From patent US20040063580A1, “Bicyclic triazolone derivatives and a herbicides containing the same” (priority 2000, published 2004) come the findings set out here.

One data set relates to corn. The experiment in a line: Post emergence test, phytotoxicity on the crop corn. Conditions: post emergence spray, evaluated two weeks after treatment. The data set is classed as in vivo. The protocol: (§1) Herbicidal Effects Against Weeds (Post Emergence)
(§2) After filling 300 g field soil in jiffypot™ having diameter of 10 cm, the soil was steam sterilized. Seeds of velvetleaf, redroot pigweed, tall morningglory and corn onto the surface of the soil were scattered, and then covered with the soil to a thickness of 0.5 cm for the weed, 1 cm for the crop. When the weed and the crop reached the designated growth stage, they were treated with the compound to be tested.
(§3) Preparation of the Test Solution and the Method of Treatment
(§4) The compound to be tested was dissolved in acetone which contain Tween 20™ and diluted with deionized water to prepare the test solution for 10 g/a and 1 g/a use. The test solution was sprayed on the pots in a device for spraying using spraygun.
(§5) Method of Indicating the Effect and Phytotoxicity
(§6) The effect of the compound tested on the weeds and phytotoxicity on the crops were evaluated two weeks after treatment with the compound as 6 grades from 0 to 5 shown in the Table 9 and 10.
The phytotoxicity was indicated by the following evaluation index.

A further data set relates to velvetleaf. The experiment in a line: Herbicidal effects against weeds (post emergence), velvetleaf. The data set is classed as in vivo. Conditions: post emergence spray, evaluated two weeks after treatment. The method, then:
as §1, §2, §3, §4, §5, §6
(§7) In the Table 11 and 12, the herbicidal effects were indicated by the following evaluation index.

A further data set relates to redroot pigweed. The experiment in a line: Herbicidal effects against weeds (post emergence), redroot pigweed. The data set is classed as in vivo. The following applies: post emergence spray, evaluated two weeks after treatment. The protocol:
as §1, §2, §3, §4, §5, §6, §7

For a further data set, the system named is tall morningglory. The experiment in a line: Herbicidal effects against weeds (post emergence), tall morningglory. Type of data set: in vivo. Conditions: post emergence spray, evaluated two weeks after treatment. The protocol:
as §1, §2, §3, §4, §5, §6, §7

The structures appear in SMILES notation. “And” between values parts separate entries of the source, which are not always exact repeats. Identical values can stand only once.

Broadly, the melting point is the temperature of the solid-liquid transition. Molecule `CCOC(=O)COC(=O)c1cc(-n2nc3ccc(Cl)cn3c2=O)c(F)cc1Cl` [Compound No. A-34, Ethoxycarbonylmethyl 2-chloro-4-fluoro-5-(6-chloro-2,3-dihydro-3-oxo-1,2,4-triazolo[4,3-a]pyridin-2-yl)benzoate] showed a melting point of 62 to 65 °C. In addition, the “Evaluation index Corn (phytotoxicity)” value with corn (1 g/a) is on record as 1 (small 0.1 to 12.5). Besides, in the data set on velvetleaf (1 g/a), the “Evaluation index Velvet leaf” value is given as 4 (maximum 87.6 to 99.9). In addition, the “Evaluation index Redroot pigweed” value in the data set on redroot pigweed (1 g/a) was 5 (maximum *all dead) 100).

The molecule `Cc1cc2c(-n3nc4ccc(Cl)cn4c3=O)c(F)cc(Cl)c2o1` [A-62, 6-Chloro-2-(7-chloro-5-fluoro-2-methylbenzofuran-4-yl)-1,2,4-triazolo[4,3-a]pyridin-3(2H)-one] registered a melting point of 205 to 207 °C. Moreover, in the data set with corn (1 g/a), the “Evaluation index Corn (phytotoxicity)” value is listed as 1 (small 0.1 to 12.5). Also, in the data set on corn (10 g/a), the “Evaluation index Corn (phytotoxicity)” value is recorded as 1 (small 0.1 to 12.5). In the data set with velvetleaf (1 g/a), the “Evaluation index Velvet leaf” value is recorded as 5 (maximum *all dead) 100). In the data set on velvetleaf (10 g/a), the “Evaluation index Velvet leaf” value is given as 5 (maximum *all dead) 100). The “Evaluation index Redroot pigweed” value in the data set with redroot pigweed (1 g/a) is 5 (maximum *all dead) 100). Besides, the “Evaluation index Redroot pigweed” value with redroot pigweed (10 g/a) is listed as 5 (maximum *all dead) 100).

`CCOC(=O)CSc1cc(-n2nc3ccc(Cl)cn3c2=O)c(F)cc1C#N` [A-19]: in the data set on velvetleaf (10 g/a), the “Evaluation index Velvet leaf” value is 5 (maximum *all dead) 100). Also, in the data set with tall morningglory (10 g/a), the “Evaluation index Tall morning glory” value is listed as 5 (maximum *all dead) 100).

With `CCS(=O)(=O)Nc1cc(-n2nc3ccc(C)cn3c2=O)c(F)cc1C#N` [A-50], the “Evaluation index Velvet leaf” value with velvetleaf (10 g/a) was 5 (maximum *all dead) 100). The “Evaluation index Tall morning glory” value in the data set on tall morningglory (10 g/a) is 5 (maximum *all dead) 100).

As to `C#CCOc1cc(-n2nc3ccc(Cl)cn3c2=O)c(F)cc1Cl` [Compound No. A-25, 6-Chloro-2-(4-chloro-2-fluoro-5-propargyloxyphenyl)-1,2,4-triazolo[4,3-a]pyridin-3(2H)-one], the melting point lay in the range of 145 to 148 °C. In addition, the “Evaluation index Corn (phytotoxicity)” value in the data set with corn (1 g/a) is given as 0 (no effect 0). The “Evaluation index Corn (phytotoxicity)” value in the data set on corn (10 g/a) is reported as 1 (small 0.1 to 12.5). For the same molecule, the “Evaluation index Velvet leaf” value with velvetleaf (1 g/a) is reported as 5 (maximum *all dead) 100). In addition, in the data set on velvetleaf (10 g/a), the “Evaluation index Velvet leaf” value was 5 (maximum *all dead) 100). The “Evaluation index Tall morning glory” value with tall morningglory (1 g/a) is recorded as 5 (maximum *all dead) 100). The “Evaluation index Tall morning glory” value in the data set with tall morningglory (10 g/a) is listed as 5 (maximum *all dead) 100).

On to `CCS(=O)(=O)Nc1cc(-n2nc3c(Cl)cccn3c2=O)c(F)cc1C#N` [A-48], for which the “Evaluation index Velvet leaf” value with velvetleaf (10 g/a) is 5 (maximum *all dead) 100). For the same molecule, the “Evaluation index Tall morning glory” value with tall morningglory (10 g/a) was 5 (maximum *all dead) 100).

In the case of `CCS(=O)(=O)Nc1cc(-n2nc3ccc(Cl)cn3c2=O)c(F)cc1Cl` [Compound No. A-35, 6-Chloro-2-(4-chloro-5-ethanesulfonylamino-2-fluorophenyl)-1,2,4-triazolo[4,3-a]pyridin-3(2H)-one], the melting point is 121 to 123 °C and 120 to 122 °C. Also, in the data set with corn (10 g/a), the “Evaluation index Corn (phytotoxicity)” value was 1 (small 0.1 to 12.5). In the data set with velvetleaf (10 g/a), the “Evaluation index Velvet leaf” value is reported as 5 (maximum *all dead) 100). Moreover, in the data set with redroot pigweed (10 g/a), the “Evaluation index Redroot pigweed” value is listed as 5 (maximum *all dead) 100).

Regarding `CCS(=O)(=O)Nc1cc(-n2nc3ccc(Cl)cn3c2=O)c(F)cc1C#N` [Compound No. A-3, 6-Chloro-2-(4-cyano-5-ethanesulfonylamino-2-fluorophenyl)-1,2,4-triazolo[4,3-a]pyridin-3(2H)-one], the melting point was 220 to 222 °C. Further, in the data set on corn (1 g/a), the “Evaluation index Corn (phytotoxicity)” value is given as 1 (small 0.1 to 12.5). For the same molecule, the “Evaluation index Velvet leaf” value in the data set on velvetleaf (1 g/a) is 5 (maximum *all dead) 100). In addition, the “Evaluation index Tall morning glory” value in the data set on tall morningglory (1 g/a) was 4 (maximum 87.6 to 99.9).

Molecule `C#CCOc1cc(-n2nc3n(c2=O)CCCN3)c(F)cc1Cl` [Compound No. F-1, 5,6,7,8-Tetrahydro-2-(4-chloro-2-fluoro-5-propargyloxyphenyl)-[1,2,4]triazolo[4,3-a]pyrimidin-3(2H)-one] registered a melting point of 172 to 174 °C. Moreover, in the data set with corn (1 g/a), the “Evaluation index Corn (phytotoxicity)” value is 3 (big 25.1 to 50.0). In addition, the “Evaluation index Corn (phytotoxicity)” value in the data set on corn (10 g/a) is listed as 3 (big 25.1 to 50.0). Besides, in the data set with velvetleaf (1 g/a), the “Evaluation index Velvet leaf” value is on record as 4 (maximum 87.6 to 99.9). In addition, the “Evaluation index Velvet leaf” value in the data set with velvetleaf (10 g/a) was 5 (maximum *all dead) 100). Moreover, the “Evaluation index Redroot pigweed” value with redroot pigweed (1 g/a) is given as 5 (maximum *all dead) 100). The “Evaluation index Redroot pigweed” value with redroot pigweed (10 g/a) was 5 (maximum *all dead) 100).

Consider `CCS(=O)(=O)N(C(C)=O)c1cc(-n2nc3ccc(Cl)cn3c2=O)c(F)cc1C#N` [Compound No. A-6, 2-[5-(N-acetyl-N-ethanesulfonylamino)-4-cyano-2-fluorophenyl]-6-chloro-1,2,4-triazolo[4,3-a]pyridin-3(2H)-one], for which the melting point was 220 to 222 °C. Moreover, the “Evaluation index Corn (phytotoxicity)” value in the data set on corn (10 g/a) is 1 (small 0.1 to 12.5). Also, the “Evaluation index Velvet leaf” value with velvetleaf (10 g/a) was 5 (maximum *all dead) 100). Besides, in the data set with redroot pigweed (10 g/a), the “Evaluation index Redroot pigweed” value was 5 (maximum *all dead) 100).

Turning to `CCOC(=O)COc1cc(-n2nc3ccc(Cl)cn3c2=O)c(F)cc1Cl` [A-27], the “Evaluation index Velvet leaf” value in the data set on velvetleaf (10 g/a) was 5 (maximum *all dead) 100). Besides, the “Evaluation index Tall morning glory” value in the data set on tall morningglory (10 g/a) is given as 5 (maximum *all dead) 100).
